{"source": "patent US9278997B2", "about": "“Processes for the manufacture of macrocyclic depsipeptides and new intermediates” (NOVARTIS AG, priority 2011, dated 2016)", "origin": "cited, not measured here", "biological_target": "chymotrypsin (Bos taurus, UniProt P00766)", "details": "from J. Nat. Prod. 68(9), 1324-7 (2005); read-out: IC50 value for inhibition of chymotrypsin"}
{"substance": "(S)-2-acetamido-N^1-((1S,2S,5S,8S,11R,12S,15S,18S,21R)-2-benzyl-21-hydroxy-5-(4-hydroxybenzyl)-15-isobutyl-8-isopropyl-4,11-dimethyl-3,6,9,13,16,22-hexaoxo-10-oxa-1,4,7,14,17-pentaazabicyclo[16.3.1]docosan-12-yl)pentanediamide [Nostopeptin BN920]", "values": [{"measurement": "IC50", "value": 31, "unit": "nM"}]}
